Measurements as given in patent publication US20250213525A1, “Atopic Dermatitis Improving Agent, Interleukin Production Inhibitor, and Inhibitor of Expression of Interleukin Gene” (PIAS CORPORATION, priority 2022, published 2025).

Assays:
Type in all cases: cell-based
[1] = test system: interleukin-1β (IL-1β) gene; assay: Inhibition of IL-1β gene expression in PMA-stimulated NHEK (real time PCR); conditions: Normal Human Epidermal Keratinocytes, PMA 25 ng/mL, 3 hours, compound 10 to 20 μM, GAPDH internal standard; FIG. 3 and FIG. 6
[2] = test system: interleukin-1α (IL-1α) gene; assay: Inhibition of IL-1α gene expression in PMA-stimulated NHEK (real time PCR); conditions: Normal Human Epidermal Keratinocytes, PMA 25 ng/mL, 3 hours, compound 10 to 20 μM, GAPDH internal standard; FIG. 2 and FIG. 5
[3] = test system: interleukin-33 (IL-33) gene; assay: Inhibition of IL-33 gene expression in PMA-stimulated NHEK (real time PCR); conditions: Normal Human Epidermal Keratinocytes, PMA 25 ng/mL, 3 hours, compound 10 to 20 μM, GAPDH internal standard; FIG. 1 and FIG. 4
Method: The following provides the details of in vitro tests. 6×10^4 cells of Normal Human Epidermal Keratinocytes (NHEK manufactured by KURABO INDUSTRIES LTD.) were seeded on a 12 well plate and cultured at 37° C. under 5% CO2 conditions for 72 hours. The incubation medium was removed and then replaced by a culture medium including the following inflammatory stimulating substance (final concentration: 25 ng/mL) and the individual compound used in each of the above Test Examples, followed by further culturing at 37° C. under 5% CO2 conditions for 3 hours. Thereafter, total RNA was purified from cells according to the instruction manual of product name “PureLink RNA Mini kit” (INVITROGEN), and RNA purified using the test kit “ReverTra Ace™ qPCR RT Master Mix (manufactured by TOYOBO CO., LTD.)” was reverse-transcribed to cDNA. For the cDNA, IL-33 mRNA expression level was quantitatively evaluated by a real time PCR method. Glyceraldehyde-3-phosphate dehydrogenase (GAPDH) was used as an internal standard calibration. The compounds used in Test Examples were dissolved in dimethyl sulfoxide (DMSO) to prepare the individual stocks, and then respectively dissolved in the culture media to have a concentration of 10 to 20 μM. At this time, dilution was performed to allow DMSO to have a concentration (1% or less) at which no cytotoxicity is caused. […]

CCCCCCCCCCCCCCCC(=O)OC[C@H](O)[C@H]1OC(=O)C(OCC(O)CO)=C1O (stereo partly drawn) [2-O-glyceryl-6-O-hexadecanoyl ascorbic acid]
inhibited: expression of interleukin-1β (IL-1β) gene [1] | expression of interleukin-1α (IL-1α) gene [2] | IL-33 mRNA expression level [3]
